Assay results taken from patent publication US6011070A, “Slow-onset, long-lasting dopamine reuptake blockers” (priority 1997, dated 2000).
Like-named read-outs stand apart in the source and are kept apart here.

How the values were obtained:
dopamine transporter [1] = target: T1, dopamine transporter (Rattus norvegicus, UniProt P23977); test: Inhibition of dopamine reuptake (Example 4); type: biochemical
T1 construct: from tissue

dopamine transporter [2] = target: T1, dopamine transporter; test: Inhibition of binding of dopamine to the dopamine transporter (Example 4)
male rhesus monkeys = settings: for Rates of cocaine self-administration, % of control levels: 30 min pretreatment
male Swiss-Webster mice = test: Dose response study of induced locomotor stimulation (Digiscan), 1 h session (Example 2); type: in vivo, Swiss-Webster mice (Hsd:ND4); settings: IP, locomotor activity
Procedure: A dose response study of induced locomotor stimulation was conducted according to the following procedure. The study was conducted using a 16 or 32 Digiscan locomotor activity testing chambers (40.5×40.5×30.5 cm) housed in sets of two, within sound-attenuating chambers. A panel of infrared beams (16 beams) and corresponding photodetectors were located in the horizontal direction along the sides of each activity chamber. A 15-W incandescent light above each chamber provided dim illumination. Fans provided an 80-dB ambient noise level within the chamber. Separate groups of 8 non-habituated male Swiss-Webster mice (Hsd:ND4, aged 2-3 months) were injected via the intraperitoneal (IP) route with either vehicle (deionized water for Compounds 1-4, carboxymethylcellulose for Compound 6 or methyl cellulose for Compound 7)) or test compound (1, 2.5, 5, 10, 25 or 50 mg/kg for Compound 3; 1, 3, 10 and 30 mg/kg for Compounds 1, 2 and 4; 3, 10, 30 or 100 mg/kg for Compound 6; and 1, 3, 10, 30 and 100 mg/kg for Compound 7). Compounds 1-4 were injected immediately prior to locomotor activity testing. […] In all studies, horizontal activity (interruption of photocell beams) was measured for 1 hour within 10 minute periods. Testing was conducted with one mouse per activity chamber.
FIGS. 1, 3, 5 and 7 show average horizontal activity counts/10 minutes as a function of time, immediately following injection of Compound 1, Compound 2, Compound 3 and Compound 4, respectively. FIGS. 13 and 15 show average horizontal activity counts/10 minutes as a function of time, beginning twenty minutes following injection of Compound 6 and Compound 7, respectively. The period 30-60 minutes was selected for analysis of dose-response data. Using TableCurve 2D v2.03 software (Jandel Scientific), the mean average horizontal activity counts/10 minutes for this period were fit to a 3-parameter logistic peak function of log10 dose (with the constant set to 1989, the mean of the vehicle-treated group), and the maximum effect estimated from the resulting curve. […] FIGS. 2, 4, 6, 8, 14 and 16 show average horizontal activity counts/10 minutes over 30 minutes versus the amount administered of Compound 1, Compound 2, Compound 3, Compound 4, Compound 6 and Compound 7, respectively.

squirrel monkeys [3] = test: Locomotor response in primates (Example 5); type: in vivo
Procedure: Compound 1 was tested for its ability to induce a locomotor response in primates according to procedures disclosed in Rosenzweig-Lipson et al., Psychopharmacology 107:186 (1992). Three squirrel monkeys were administered 1.0 mg/kg of Compound 1. […] The results for each monkey are shown below in Table III and is presented as the responses per second on each day of the test. Controls were established by testing each monkey prior to administering Compound 1.

monkeys = test: Previous evaluation, Task I: Drug Discrimination; type: in vivo
Description: It is of interest to compare the results of the present study with the results of our previous evaluation of Compound 1 in Task I: Drug Discrimination. […] Higher doses of Compound 1 were not examined in the present study.

squirrel monkeys [4] = test: Locomotor response in primates (Example 5); type: in vivo; remark: listed apart in the source

T1 sequence (P23977 whole entry): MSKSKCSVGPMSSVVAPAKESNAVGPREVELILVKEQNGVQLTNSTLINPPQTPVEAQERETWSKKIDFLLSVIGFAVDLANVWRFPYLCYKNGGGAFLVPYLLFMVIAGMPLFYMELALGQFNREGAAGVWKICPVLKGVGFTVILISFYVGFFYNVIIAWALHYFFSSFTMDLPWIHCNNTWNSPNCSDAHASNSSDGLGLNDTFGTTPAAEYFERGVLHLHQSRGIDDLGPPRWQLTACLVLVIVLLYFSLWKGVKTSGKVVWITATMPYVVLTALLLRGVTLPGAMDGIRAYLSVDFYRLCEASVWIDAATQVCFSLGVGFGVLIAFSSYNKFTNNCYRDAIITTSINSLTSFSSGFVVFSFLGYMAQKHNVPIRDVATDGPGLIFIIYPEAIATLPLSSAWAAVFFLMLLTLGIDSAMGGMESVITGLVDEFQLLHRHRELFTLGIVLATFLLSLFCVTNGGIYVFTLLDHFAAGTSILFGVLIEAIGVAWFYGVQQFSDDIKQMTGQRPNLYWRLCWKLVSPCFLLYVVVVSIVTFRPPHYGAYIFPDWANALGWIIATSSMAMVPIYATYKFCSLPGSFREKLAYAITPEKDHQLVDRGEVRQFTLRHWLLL

In the case of CN(C)C1CC(c2ccc(Cl)c(Cl)c2)c2ccccc21 (stereo not shown) [Compound 1, N,N-dimethyl-3-(3',4'-dichlorophenyl)-1-indanamine], the Uptake/Binding (dopamine transporter [1]; ratio of IC50 values) is reported as 1.19, the IC50 (dopamine transporter [1]; read-out: DA Uptake, inhibition of dopamine reuptake IC50) is reported as 56 nM and the IC50 (dopamine transporter [2]) is reported as 47 nM. The “Rates of cocaine self-administration, % of control levels” value (male rhesus monkeys; 3.2 mg/kg Compound 1 i.m.) was “approximately 25 % of control levels”, the “Rates of cocaine self-administration and food-maintained responding across cocaine unit doses” value (male rhesus monkeys; 3.2 mg/kg Compound 1 i.m., all three monkeys) was “decreased rates of cocaine self-administration across a wide range of cocaine unit doses while producing relatively minor effects on food-maintained responding” and the “Rates of food-maintained responding” value (male rhesus monkeys; 3.2 mg/kg Compound 1 i.m., monkey 89B056) was “usually unaffected”. The “Rates of food-maintained responding” value (male rhesus monkeys; 3.2 mg/kg Compound 1 i.m., monkey J3A) was “small and inconsistent changes”, the “Cocaine unit doses at which self-administration rates were decreased” value (male rhesus monkeys; 3.2 mg/kg Compound 1 i.m., monkey WH8) was 0.001-0.01 mg/kg/inj and the “Rates of food-maintained responding, % of control levels” value (male rhesus monkeys; 3.2 mg/kg Compound 1 i.m., monkey WH8, first food component) was “approximately 30 % of control levels”. For the same molecule, the “Rates of food-maintained responding” value (male rhesus monkeys; 3.2 mg/kg Compound 1 i.m., monkey WH8, second food component) was “unaffected”, the “Range of cocaine doses across which self-administration was decreased” value (male rhesus monkeys; 3.2 mg/kg Compound 1 i.m., three monkeys) was “one to two” and the “Rates of cocaine self-administration, % of control levels” value (male rhesus monkeys; 0.1-1.0 mg/kg Compound 1 i.m.) was 50-75 % of control levels. For the same molecule, the Overt behavioral effects (male rhesus monkeys; Compound 1, 0.1-3.2 mg/kg i.m., prior to or during test session) was “did not produce noticeable overt behavioral effects”, the “Maximal Effect Relative to Cocaine” value (male Swiss-Webster mice) was 0.82 and the ED50 (male Swiss-Webster mice; Mus musculus, 30-60 min period, read-out: ED50 (dose producing 1/2 maximal stimulant activity)) was 4.88 mg/kg. For the same molecule, the “Time of peak of locomotor response” value (squirrel monkeys [3]; 1.0 mg/kg Compound 1) was “three”, the “Number of Responses/Second” value (squirrel monkeys [3]; 1.0 mg/kg Compound 1, Day 1, Monkey 6 (control 0.93)) was 1.01 responses/second and the “Number of Responses/Second” value (squirrel monkeys [3]; 1.0 mg/kg Compound 1, Day 2, Monkey 4 (control 1.15)) was 1.72 responses/second. The “Number of Responses/Second” value (squirrel monkeys [3]; 1.0 mg/kg Compound 1, Day 4, Monkey 4 (control 1.15)) was 1.06 responses/second, the “Number of Responses/Second” value (squirrel monkeys [3]; 1.0 mg/kg Compound 1, Day 4, Monkey 5 (control 0.51)) was 1.01 responses/second and the “Number of Responses/Second” value (squirrel monkeys [3]; 1.0 mg/kg Compound 1, Day 5, Monkey 4 (control 1.15)) was 1.05 responses/second. For the same molecule, the “Effect on response rates” value (monkeys; Compound 1, 3.2 mg/kg) was “little effect on response rates in two monkeys, increased response rates in one monkey, and eliminated responding in only one monkey”, the “Effect on responding, feeding and behavior” value (monkeys; Compound 1, 10 mg/kg, one monkey) was “eliminated operant responding, decreased free feeding and produced overt behavioral effects including hyperactivity and agitation for several days” and the “Effect on response rates” value (monkeys; Compound 1, doses up to 1.0 mg/kg) was “little or no effect on response rates”. For the same molecule, the “Onset of locomotor response” value (squirrel monkeys [4]; 1.0 mg/kg Compound 1, 25 minute intervals) was “slow onset locomotor response”, the “Number of Responses/Second” value (squirrel monkeys [4]; 1.0 mg/kg Compound 1, Day 1, Monkey 4 (control 1.15)) was 1.63 responses/second and the “Number of Responses/Second” value (squirrel monkeys [4]; 1.0 mg/kg Compound 1, Day 1, Monkey 5 (control 0.51)) was 0.76 responses/second. For the same molecule, the “Number of Responses/Second” value (squirrel monkeys [4]; 1.0 mg/kg Compound 1, Day 2, Monkey 5 (control 0.51)) was 1.50 responses/second, the “Number of Responses/Second” value (squirrel monkeys [4]; 1.0 mg/kg Compound 1, Day 2, Monkey 6 (control 0.93)) was 1.31 responses/second and the “Number of Responses/Second” value (squirrel monkeys [4]; 1.0 mg/kg Compound 1, Day 3, Monkey 4 (control 1.15)) was 1.92 responses/second. The “Number of Responses/Second” value (squirrel monkeys [4]; 1.0 mg/kg Compound 1, Day 3, Monkey 5 (control 0.51)) was 1.51 responses/second, the “Number of Responses/Second” value (squirrel monkeys [4]; 1.0 mg/kg Compound 1, Day 3, Monkey 6 (control 0.93)) was 1.40 responses/second and the “Number of Responses/Second” value (squirrel monkeys [4]; 1.0 mg/kg Compound 1, Day 4, Monkey 6 (control 0.93)) was 1.16 responses/second. For the same molecule, the “Number of Responses/Second” value (squirrel monkeys [4]; 1.0 mg/kg Compound 1, Day 5, Monkey 5 (control 0.51)) was 0.82 responses/second, the “Number of Responses/Second” value (squirrel monkeys [4]; 1.0 mg/kg Compound 1, Day 5, Monkey 6 (control 0.93)) was 1.14 responses/second and the “Number of Responses/Second” value (squirrel monkeys [4]; 1.0 mg/kg Compound 1, Day 6, Monkey 5 (control 0.51)) was 0.62 responses/second. For the same molecule, the “Number of Responses/Second” value (squirrel monkeys [4]; 1.0 mg/kg Compound 1, Day 7, Monkey 5 (control 0.51)) was 0.60 responses/second.
